Columns and labels:
[1] = Dialysis retention of JS-K (loading in micelles); type: physicochemical; settings: 2 hours of dialysis; JS-K levels by HPLC; JS-K to polymer 10% by weight
Experimental: This example illustrates the extent of JS-K loading in micelles. JS-K was loaded in Pluronic® P123 and L121 polymers to form micelles. The proportion of JS-K to Pluronic® polymer in solution was 10% by weight. The JS-K micelle preparations were then dialyzed for 2 hours. A parallel experiment following the same procedures with free JS-K was set up as a control. After 2 hours of dialysis, JS-K levels were measured by HPLC to estimate the percent of JS-K retained.

HL-60 cells [2] = test: In vitro cytotoxicity, MTS assay; type: cell-based
Experimental: The in vitro cytotoxicity of JS-K in Pluronic® micelles was studied in this example. JS-K was loaded in F68, P105, or F127 Pluronic® micelles as described above. […] […] Similar control experiments were set-up with equivalent concentrations of each Pluronic® micelle without JS-K. After a 3 day incubation, cell growth was measured using the MTS assay. […] Equivalent empty micelles at equal concentrations (0.08% w/v) had no significant effect on cell growth (not shown).

[3] = Effect on systemic blood pressure (tail cuff); type: in vivo, NOD/SCID and NOD/SCID IL2Rγ^null mice; settings: 5 μmol/kg intravenous, awake mice, up to 2 hours
Description: This example illustrates the effect of JS-K in Pluronic® micelles on systemic blood pressure. […] The proportion of JS-K to Pluronic® polymer in solution was 1.53% by weight.
Awake, unanesthetized NOD/SCID and NOD/SCID IL2Rγ^null mice were used for these experiments.

HL-60 cells [4] = test: In vivo anti-leukemic activity, HL-60 flank tumors; set-up: species or system NOD/SCID IL2Rγ^null mice; settings: 4 μmol/kg intravenously 3 times per week; p=0.01 by F-test
Description: This example illustrates the in vivo anti-leukemic activity of JS-K in Pluronic® micelles. NOD/SCID IL2Rγ^null mice were inoculated with 5×10^6 HL-60 cells in each flank. […] The proportion of JS-K to Pluronic® polymer in solution was 2.0% by weight. Injections were given 3 times per week intravenously. The dose of free and micelle-formulated JS-K was 4 μmol/kg. […] A linear mixed model using SAS PROC MIXED was fit to the data in FIG. 8, using a random effect to account for correlation among measurements within the same animal.

[5] = Stability in RPMI media with 10% Fetal Bovine Serum; type: in vitro ADME; settings: RPMI/10% FBS, 37° C.; micelle 50, free 10 micromolar; average and SEM of 6
Experimental: (§1) The stability of JS-K in different media in vitro was evaluated. […] Concentrations of JS-K in the different media were measured at intervals up to 60 minutes using High Pressure Liquid Chromatography (HPLC). Area Under the Curve (AUC) HPLC measurements were used to determine the half-life (T1/2) and percent recovery of JS-K in the different media.

[6] = Stability in pooled human plasma; type: in vitro ADME; settings: 37° C., micelle 50, free 10 micromolar, average and SEM of 2
Experimental: as §1

## CCOC(=O)N1CCN(/[N+]([O-])=N/Oc2ccc([N+](=O)[O-])cc2[N+](=O)[O-])CC1 [free JS-K, O^2-(2,4-dinitrophenyl) 1-[(4-ethoxycarbonyl)piperazin-1-yl]diazen-1-ium-1,2-diolate]
[1]
  Percent retention of JS-K after dialysis: 31%
HL-60 cells [2]; 0.5 μM, 3 day incubation, MTS, JS-K to polymer 4% by weight
  inhibition of leukemia cell growth: 62%
HL-60 cells [2]; JS-K to polymer 1.97% by weight
  IC50: 450 nM
[3]
  sustained drop in systolic blood pressure: around 20 % of baseline
HL-60 cells [4]
  rate of tumor growth, free vs micelle JS-K (linear mixed model): significantly higher
[5]
  percent recovery after 60 minute incubation: 10.53+/−1.42%
[6]
  percent recovery after 60 minute incubation: 39+/−0%

From US9439915B2, “Activated nitric oxide donors and methods of making and using thereof” (University of Utah Research Foundation, priority 2008, dated 2016)
